# Data taken from PubChem BioAssay (NCI).
#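 Each compound was tested at five concentrations against cells in 96-well plates for 48 hours. GI50 = concentration required for 50% inhibition of growth. TGI is the concentration that stops growth completely.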
# Key:
# Experiment in all cases: DTP human tumour cell line panel, 48 h
# [1] = tested on: NCI-H460 lung
# [2] = tested on: LOX IMVI melanoma
# [3] = tested on: RXF 393 renal
# [4] = tested on: A549 NSCLC
# [5] = tested on: MOLT-4 leukemia
# [6] = tested on: SK-OV-3 ovarian
# [7] = tested on: SF-539 CNS
# [8] = tested on: MDA-MB-435
SMILES,TGI [1] [µM],TGI [2] [µM],TGI [3] [µM],TGI [4] [µM],TGI [5] [µM],TGI [6] [µM],TGI [7] [µM],TGI [8] [µM],GI50 [1] [µM],GI50 [3] [µM],GI50 [4] [µM],GI50 [5] [µM],GI50 [6] [µM],GI50 [7] [µM],GI50 [8] [µM]
Cc1ccc(C(=O)c2[nH]c(Nc3cc(C)ccn3)c(C(=S)Nc3ccccc3)c2N)cc1,> 100,> 100,> 100,> 100,> 100,> 100,> 100,> 100,–,–,–,–,–,–,–
Cc1ccsc1C(=S)Nc1ccc(Cl)c(C(=O)OC(C(C)C)C(C)C)c1,> 100,55.3,–,> 100,55.6,> 100,> 100,63.1,–,–,–,–,–,–,–
CCNC(=S)N/N=C/c1ccccn1,27.8,> 100,> 100,82.1,> 100,> 100,29.7,> 100,–,–,–,–,–,–,–
COc1cc2c(cc1O)CC[n+]1cc3c(OC)c(OC)ccc3cc1-2,> 100,> 100,–,> 100,> 100,> 100,> 100,> 100,–,–,–,–,–,–,–
NC(=S)N=Nc1c(O)cc(Nc2ccc(Cl)cc2Cl)c2ccccc12,> 100,> 100,51.4,> 100,> 100,61.5,53.4,> 100,–,–,–,–,–,–,–
O=C(/C=C1\C[C@H]2C=Nc3ccccc3C(=O)N2C1)NCCCCCNC(=O)/C=C1\C[C@H]2C=Nc3ccccc3C(=O)N2C1,36.6,4.47,11.6,54.6,> 100,30.3,> 49.9,19,–,–,–,–,–,–,–
Cc1cc(C)nc(NS(=O)(=O)c2ccc(Nc3c4ccccc4nc4c(C(=O)NCCO)cccc34)cc2)n1,> 100,25.5,–,> 100,> 100,> 100,–,40.7,–,–,–,–,–,–,–
O=C(NCCCNCCCCNCCCNC(=O)C(F)(F)F)C(F)(F)F,> 100,> 100,> 100,> 100,–,> 100,> 100,> 100,–,–,–,–,–,–,–
c1ccc(-c2ccc(N=NN3CCCC3)cc2)cc1,> 100,> 100,> 100,–,> 100,> 100,> 100,> 100,–,–,–,–,–,–,–
CCN(C(=O)N[C@H](C(=O)N[C@@H](C)C(=O)OC)C(C)C)c1ccccc1,66.2,> 100,> 100,> 100,> 100,> 100,48.4,52.2,–,–,–,–,–,–,–
CCOP(=O)(OCC)c1cc(-c2ccccc2)ccc1N,> 100,–,> 100,> 100,> 100,> 100,–,> 100,–,–,–,–,–,–,–
CC[P+](C#Cc1ccccc1)(c1ccccc1)c1ccccc1,11.2,4.19,4.39,14.8,3.93,9.43,4.01,2.83,–,–,–,–,–,–,–
O=c1oc2ccccc2c2nc3ccccc3cc12,> 100,–,91.3,> 100,> 100,> 100,27.4,> 100,–,–,–,–,–,–,–
COn1cc(CO)c2ccccc21,> 100,> 100,47.8,> 100,> 100,> 100,> 100,> 100,–,–,–,–,–,–,–
C=C1CC=CC(C)(C)C1C/C=C(\C)C(O)CBr (stereo unspecified),> 100,53.5,> 100,> 100,> 100,> 100,> 100,> 100,–,–,–,–,–,–,–
Nc1nc(Nc2ccc(OCc3cccc(F)c3)cc2)c2c(n1)[nH]c1ccc(O)cc12,9.37,–,3.55,17.8,8.34,31.3,3.31,14.1,3.25,1.78,4.13,2.77,17.1,1.79,3.68
CC12CCC(C/C1=N\NC(N)=O)C2(C)C (stereo unspecified),> 100,> 100,–,> 100,> 100,> 100,–,> 100,–,–,–,–,–,–,–
C/C(=N\Nc1nc2ccccc2s1)c1cccnn1,15.1,–,84.5,> 100,> 100,52.3,17.7,> 100,–,–,–,–,–,–,–
COc1ccc(N2C(=O)C3c4[nH]c5ccccc5c4C4C(C)CCCC4C3C2=O)cc1 (stereo unspecified),> 100,> 100,> 72.6,> 100,> 100,> 100,> 82.8,> 30.2,–,–,–,–,–,–,–
Nc1n[nH]c2ccccc12,> 100,> 100,> 100,> 100,> 100,> 100,> 100,> 100,–,–,–,–,–,–,–
O=C(O)c1cc2ccccc2c(S(=O)(=O)O)c1O,> 100,> 100,> 100,> 100,> 100,> 100,> 100,> 100,–,–,–,–,–,–,–
CC(C)(C)OC(=O)c1ccc(NCc2cc(O)ccc2O)cc1,> 73.8,13.5,3.35,> 89.4,11.2,44.3,2.73,16.1,–,–,–,–,–,–,–
COc1cc2c(cc1OCCCOc1cc3c(cc1OC)C(=O)N1CCC[C@H]1CN3)N=C[C@@H]1CCCN1C2=O,–,10.8,2.55,> 28.1,0.148,> 100,0.411,0.29,–,–,–,–,–,–,–
CCOC(=O)c1c(NC(=S)Nc2ccc(C)cc2)sc2c1CCN(C)C2,> 100,–,> 100,> 100,> 100,–,> 100,–,–,–,–,–,–,–,–
COC(=O)c1sc2ncc3c(c2c1N)CC(C)CC3 (stereo unspecified),> 100,> 100,> 100,> 100,> 100,> 100,> 100,> 100,–,–,–,–,–,–,–
O=C1NN=C(c2c[nH]c3ccccc23)CC1NCc1ccccc1 (stereo unspecified),> 100,> 100,> 100,> 100,> 100,> 100,> 100,> 100,–,–,–,–,–,–,–

SMILES,TGI [1] [µM],TGI [2] [µM],TGI [3] [µM],TGI [4] [µM],TGI [5] [µM],TGI [6] [µM],TGI [7] [µM],TGI [8] [µM],GI50 [1] [µM],GI50 [3] [µM],GI50 [4] [µM],GI50 [5] [µM],GI50 [6] [µM],GI50 [7] [µM],GI50 [8] [µM]
CC1OC(n2cc(F)c(=O)[nH]c2=O)C(O[Si](C)(C)C(C)(C)C)C1O[Si](C)(C)C(C)(C)C (stereo unspecified),–,42,29.5,54.2,> 100,32,28.7,34.5,–,–,–,–,–,–,–
OC(c1ccco1)C(F)(F)c1nc2ccccc2o1 (stereo unspecified),> 100,> 100,> 100,–,> 100,> 100,> 100,> 100,–,–,–,–,–,–,–
COC1OC2COC(C)(C)OC2C2OC(C)(C)OC12 (stereo unspecified),–,–,> 100,> 100,87.9,> 100,–,> 100,–,–,–,–,–,–,–
OCC1OC(O[C@H]2CN3[C@H](O)[C@@H](O)[C@H](O)[C@H]3C2O)C(O)C(O)C1O (stereo partly specified),> 100,> 100,> 100,> 100,> 100,> 100,> 100,> 100,–,–,–,–,–,–,–
COC(=O)C(CCSC)NC(=O)CSc1nnc(COc2ccc(Cl)cc2)n1-c1ccccc1 (stereo unspecified),29.8,32.4,35.4,> 70.8,43,43.2,33.7,34.3,–,–,–,–,–,–,–
O=C1c2c(c3c4ccc(Br)cc4oc3c3[nH]c4ccccc4c23)C(=O)N1O,–,–,6.34,–,> 100,> 100,–,> 100,–,2.1,–,0.308,2.84,–,3.11
CC1=C(C(=O)NNC(=O)CC#N)CC(C(=O)NNC(=O)CC#N)=C(C)N1,> 100,> 100,> 100,> 100,> 100,> 100,> 100,> 100,–,–,–,–,–,–,–
CC/C=C\C/C=C\C/C=C\CCCCCCCC(=O)OC(COC(=O)CCCCCCCCCCCCCCCCC)COC1OC(CO)C(O)C(O)C1O (stereo unspecified),> 25,> 25,> 25,> 25,> 25,> 25,–,> 25,–,–,–,–,–,–,–
COc1cc(-c2c3c(cc4c2OCO4)[C@@H](Nc2ccc4c(c2)Cc2cc(N[C@@H]5c6cc7c(cc6C(c6cc(OC)c(O)c(OC)c6)[C@H]6C(=O)OC[C@H]56)OCO7)ccc2-4)[C@H]2COC(=O)[C@@H]2C3)cc(OC)c1O (stereo partly specified),> 100,> 100,–,> 100,> 100,41.1,19,33.1,–,–,–,–,–,–,–
CC1=CCC[C@H]2[C@](C)(CC3=CC(=O)C4SCCSC4C3=O)[C@@H](C)CC[C@]12C (stereo partly specified),65,24.3,44.8,38.3,80.7,–,40.3,58.7,–,–,–,–,–,–,–
C[C@@H]1C(=O)CC2(O)[C@@]13C[C@@H](OC(=O)[C@@H]3O)[C@@H](C)[C@@]21COC1=O (stereo partly specified),> 100,> 100,> 100,> 100,> 100,> 100,> 100,> 100,–,–,–,–,–,–,–
COc1cc(OC)c(C2c3cc4c(cc3OC(N3CCOCC3)C2C)OCO4)c(OC)c1 (stereo unspecified),> 100,> 100,–,> 100,> 100,–,> 100,> 100,–,–,–,–,–,–,–
CCN(CC)C(=S)SS(=O)(=O)c1ccc(C)cc1,> 100,36.1,33.4,–,–,> 100,39,> 100,–,–,–,–,–,–,–
O=CN(O)CC(=O)O,> 100,> 100,> 100,> 100,> 100,> 100,> 100,> 100,–,–,–,–,–,–,–
CCOC(=O)C1=C(C)NC(=O)N([N+](=O)[O-])C1c1ccccc1C(F)(F)F (stereo unspecified),> 100,> 100,> 100,> 100,> 100,> 100,71.9,> 100,–,–,–,–,–,–,–
C(=N/Nc1ccc(-c2nc3ccccc3[nH]2)cc1)/c1c(-c2ccccc2)[nH]c2ccccc12,32.3,> 100,> 100,–,> 100,20.5,55.2,0.785,–,–,–,–,–,–,–
COc1cc2c3c(n(C)c(=O)c2cc1OC)-c1cc2c(cc1/C3=C/CCCCBr)OCO2,> 100,> 100,> 100,> 100,> 100,> 100,> 100,> 100,–,–,–,–,–,7.07,> 100
Cc1cccc(NC(Nc2cccc(C)c2)=C(C(Cl)=C(Cl)Cl)[N+](=O)[O-])c1,> 62.5,28.7,22.8,> 68,> 20,> 100,23.4,28.7,–,–,–,–,–,–,–
CC(O)(C(=O)N(O)c1ccc(Cl)cc1)c1ccc(Cl)cc1 (stereo unspecified),> 100,> 100,95.2,> 100,42.9,97.5,> 100,87.8,–,–,–,–,–,–,–
COC(=O)C(CCCCNC(=O)CNC(=O)OCc1ccccc1)NC(=O)C(CCCCNC(=O)CNC(=O)OCc1ccccc1)NC(=O)OCc1ccccc1 (stereo unspecified),> 100,> 100,–,> 100,> 100,–,–,> 100,–,–,–,–,–,–,–
CNc1ccc2c(c1)Cc1ccccc1-2,> 100,> 100,> 100,56.2,98.7,–,> 100,69.3,–,–,–,–,–,–,–
Cc1ccc2c(c1)C(=O)/C(=C\c1ccc(Cl)cc1)CCS2(=O)=O,5.02,6.43,–,> 58.8,9.79,22.4,4.52,23.3,–,–,–,–,–,–,–
CCOC(=O)c1[nH]c2nc(SC)nc(NC)c2c1N,> 100,> 100,> 100,> 100,> 100,> 100,–,> 100,–,–,–,–,–,–,–
NNC(=O)c1cccc2c1Oc1ccccc1S2,> 100,> 100,> 100,–,> 100,> 100,> 100,> 100,–,–,–,–,–,–,–
COc1ccc(CCCCl)c(C2=NCCc3ccccc32)c1,> 100,–,> 100,> 100,> 100,> 100,> 100,> 100,–,–,–,–,–,–,–
CC(C)(C)c1ccc2c(c1)OCc1n[nH]c(n1)COc1cc(C(C)(C)C)ccc1OCCOCCO2,12.7,–,4.56,14.3,17.6,15.3,21.5,11.5,–,–,–,–,–,–,–
